Values joined by “and” are separate entries in the source; they are usually repeats but may differ in a detail not shown here. Equal values may be shown once. One block for each compound: values may come before it.
Assays:
[1] = biological target: T1, human His6Gal-3 (Homo sapiens, UniProt P17931); experiment: Competitive inhibition of Gal-3 binding to immobilized asialofetuin (ASF), ELISA-type; details: for IC50: inhibition of Gal-3 binding to immobilized ASF (5 pmol), 1 h in PBS; for Relative Potency: from IC50, relative to free tetrasaccharide 6 (13 series) or 7 (14 series); for Relative Potency per Glycan: inhibitory potency per glycan, relative to 6 (13 series) or 7 (14 series)
T1 construct: made in house; host or cells: Escherichia coli Rosetta (DE3) pLysS
T1 sequence (P17931 whole entry): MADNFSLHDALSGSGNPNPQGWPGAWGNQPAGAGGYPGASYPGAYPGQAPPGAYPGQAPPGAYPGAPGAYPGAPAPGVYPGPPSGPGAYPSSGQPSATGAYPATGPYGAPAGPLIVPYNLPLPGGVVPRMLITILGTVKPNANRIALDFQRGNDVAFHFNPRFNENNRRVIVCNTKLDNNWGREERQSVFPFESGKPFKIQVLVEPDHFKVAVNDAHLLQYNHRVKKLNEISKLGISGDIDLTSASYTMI
Method: Neo-glycoproteins 13b, 13d, 13e and 14b, 14d, 14e, as well as glycans 1, 2, 6 and 7 were used in a competitive inhibition assay. Asialofetuin (ASF, 5 pmol in PBS) as the standard glycoprotein was immobilized overnight in microtiter plates (MaxiSorp, Nunc). After blocking as described before, different concentrations of inhibitor and His6Gal-3 were simultaneously incubated for one hour in PBS. Residual bound galectin was detected as described above. Evaluation of the measured data was done using Sigma Plot. All assays were reproduced in at least three independent measurements.

[2] = biological target: T1, human His6Gal-3; experiment: ELISA-type binding of Gal-3 to immobilized glycans and neo-glycoproteins; details: for Gal-3 binding to immobilized tetrasaccharide (in words): glycan (5 nmol) immobilized on aminoreactive surface; for selectivity for Gal-3 binding compared with Gal-1 (in words): immobilized glycans, 1 µM protein concentration
Method: (§1) The synthesized glycans and neo-glycoproteins were analyzed for binding of Gal-3 and Gal-1 in 96-well microtiter plate formats. Glycans 11 and 12, as well as the corresponding LacNAc-LacNAc-linker-NH2 1a and LacdiNAc-LacNAc-linker-NH2 2a (deprotected forms of 1 and 2) were immobilized via the amino group in aminoreactive microtiter plates (Immobilizer Amino, Nunc, Wiesbaden, Germany). The immobilization of 5 nmol glycan in sodium carbonate buffer (100 mM, pH 9.6) was done overnight. For immobilizing neo-glycoproteins, 5 pmol protein were incubated in PBS (pH 7.5) in MaxiSorp microtiter plates (Nunc) overnight. Wells were then washed with PBS-Tween (0.05% (v/v)) and blocked with 2% BSA in PBS followed by incubation for one hour with galectins diluted in EPBS. Incubation with anti-His6-peroxidase (Roche) was done subsequently. Microtiter plates were read out at 495 nm after conversion of OPD substrate (o-phenylenediamine, Dako, Hamburg, Germany). Measured data were analyzed using Sigma Plot (Systat software GmbH, Erkrath, Germany).

[3] = biological target: T2, human His6Gal-1C2S (Homo sapiens, UniProt P09382, C3S); experiment: ELISA-type binding of Gal-1 to immobilized glycans and neo-glycoproteins; details: 1 µM Gal-1, immobilized ligand 5 pmol per well
T2 construct: made in house; host or cells: Escherichia coli Rosetta (DE3) pLysS
T2 sequence (P09382 whole entry C3S): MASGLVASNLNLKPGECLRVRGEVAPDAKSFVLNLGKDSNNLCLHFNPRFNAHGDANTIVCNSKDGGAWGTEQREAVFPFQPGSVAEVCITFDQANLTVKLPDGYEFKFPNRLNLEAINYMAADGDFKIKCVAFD
Method: as §1

[4] = biological target: T1, human His6Gal-3; experiment: Surface plasmon resonance with immobilized Gal-3; format: binding; details: SPR, ligand in flow (20 µL/min) over immobilized Gal-3, one concentration, fit with Scrubber2; read-out: Apparent KD
Method: SPR spectroscopy was done with Reichert SR7500DC System (XanTec bioanalytics, Düsseldorf, Germany) and carboxymethyldextran hydrogel sensor chips complexed with Ni^2+ ions (200M, XanTec bioanalytics). These surfaces allow reversible immobilization of His6-tagged proteins. Human His6Gal-3 (5 pmol in EPBS) was immobilized on the sample channel with a flowrate of 10 µL/min after 5 mM NiCl2 solution was injected. The reference channel stayed untreated.
The binding experiments were carried out with a flow rate of 20 µL/min by injecting neo-glycoproteins 13a–f and 14a–f (2 pmol in PBS) and recently synthesized neo-glycoproteins 15a–f and 16a–f (2 pmol in PBS), as well as BSA and ASF as the control. The dissociation time was three minutes. Between the measurements, the surface was regenerated with 0.5 M Na EDTA (pH 8.5) to remove Ni^2+ together with Gal-3. Each cycle started with NiCl2 followed by Gal-3 application.
The measured data were subtracted by reference values and analyzed using Integrated SPRAutolink (Reichert technologies, Depew, NY, USA) and Scrubber2 (version 2.0c, BioLogic Software, Campbell ACT, Australia).

Compound: CC(=O)N[C@@H]1[C@@H](O)[C@H](O[C@@H]2O[C@H](CO)[C@H](O)[C@H](O[C@@H]3O[C@H](CO)[C@@H](O[C@@H]4O[C@H](CNNC(=O)CCCCCNC(=O)CCCC[C@@H]5SCC6NC(=O)NC65)[C@H](O)[C@H](O)[C@H]4O)[C@H](O)[C@H]3NC(C)=O)[C@H]2O)[C@@H](CO)O[C@H]1NC(=S)NCCNC(=O)OC(C)(C)C (some centres unmarked) [Compound 6, 6-biotin LacNAc-LacNAc-linker-NH2-tBoc]
Relative Potency [1]: 1.0 ± 0.1 | IC50 [1]: 14 µM and 14.8 µM | Relative Potency per Glycan [1]: 1.0 ± 0.1

Compound: CC(=O)N[C@@H]1[C@@H](O)[C@H](O[C@@H]2O[C@H](CO)[C@H](O)[C@H](O[C@@H]3O[C@H](CO)[C@@H](O[C@@H]4O[C@H](CNNC(=O)CCCCCNC(=O)CCCC[C@@H]5SCC6NC(=O)NC65)[C@H](O)[C@H](O)[C@H]4O)[C@H](O)[C@H]3NC(C)=O)[C@H]2O)[C@@H](CO)O[C@H]1NC(=S)NCCN (some centres unmarked) [Compound 8]
Gal-3 binding to immobilized tetrasaccharide (in words) [2]: high binding signals | selectivity for Gal-3 binding compared with Gal-1 (in words) [2]: high selectivity

Compound: CC(=O)N[C@@H]1[C@@H](O)[C@H](O[C@@H]2O[C@H](CO)[C@H](O)[C@H](O[C@@H]3O[C@H](CO)[C@@H](O[C@@H]4O[C@H](CNNC(=O)CCCCCNC(=O)CCCC[C@@H]5SCC6NC(=O)NC65)[C@H](O)[C@H](O)[C@H]4NC(C)=O)[C@H](O)[C@H]3NC(C)=O)[C@H]2O)[C@@H](CO)O[C@H]1NC(=S)NCCN (some centres unmarked) [Compound 9]
Gal-3 binding to immobilized tetrasaccharide (in words) [2]: highest binding | selectivity for Gal-3 binding compared with Gal-1 (in words) [2]: high selectivity

Compound: ASF: Asialofetuin, standard glycoprotein having nine N-glycosidic bound LacNAc units [reference compound]
Binding signal Galectin-3 ([2]; 1 µM Gal-3, immobilized ligand 5 pmol per well): 0.38 ± 0.10 | Kd ([2]; Gal-3 concentration at half-maximal binding to immobilized ligand (5 pmol), one site saturation fit, read-out: Apparent Kd): 1.26 ± 0.25 µM | Relative Potency ([2]; from apparent Kd, in relation to ASF): 1.00 ± 0.20 | Relative Potency per Glycan ([2]; from apparent Kd, in relation to ASF, per glycan): 0.11 ± 0.02 | Binding signal Galectin-1 [3]: 0.40 ± 0.07 | Kd [4]: 0.075 ± 0.002 µM

Compound: LacNAc-LacNAc-linker-NH2 [Compound 1a]
Gal-3 binding to immobilized tetrasaccharide (in words) [2]: rather weak

Compound: LacdiNAc-LacNAc-linker-NH2 [Compound 2a]
Gal-3 binding to immobilized tetrasaccharide (in words) [2]: essentially no binding

Results, then the compound that gave them:

IC50 [1]: 14 µM
Compound: CC(=O)N[C@@H]1[C@@H](O)[C@H](O[C@@H]2O[C@H](CO)[C@H](O)[C@H](O[C@@H]3O[C@H](CO)[C@@H](O[C@@H]4O[C@H](CO)[C@H](O)[C@H](O)[C@H]4O)[C@H](O)[C@H]3NC(C)=O)[C@H]2O)[C@@H](CO)O[C@H]1NC(=S)NCCNC(=O)OC(C)(C)C [Compound 1, LacNAc-LacNAc-linker-NH2-tBoc]

IC50 [1]: ~8 µM
Compound: CC(=O)N[C@@H]1[C@@H](O)[C@H](O[C@@H]2O[C@H](CO)[C@H](O)[C@H](O[C@@H]3O[C@H](CO)[C@@H](O[C@@H]4O[C@H](CO)[C@H](O)[C@H](O)[C@H]4NC(C)=O)[C@H](O)[C@H]3NC(C)=O)[C@H]2O)[C@@H](CO)O[C@H]1NC(=S)NCCNC(=O)OC(C)(C)C [Compound 2, LacdiNAc-LacNAc-linker-NH2-tBoc]

Relative Potency [1]: 1.0 ± 0.2 | IC50 [1]: 7.66 ± 1.24 µM | Relative Potency per Glycan [1]: 1.0 ± 0.2
Compound: CC(=O)N[C@@H]1[C@@H](O)[C@H](O[C@@H]2O[C@H](CO)[C@H](O)[C@H](O[C@@H]3O[C@H](CO)[C@@H](O[C@@H]4O[C@H](CNNC(=O)CCCCCNC(=O)CCCC[C@@H]5SCC6NC(=O)NC65)[C@H](O)[C@H](O)[C@H]4NC(C)=O)[C@H](O)[C@H]3NC(C)=O)[C@H]2O)[C@@H](CO)O[C@H]1NC(=S)NCCNC(=O)OC(C)(C)C (some centres unmarked) [Compound 7, 6-biotin LacdiNAc-LacNAc-linker-NH2-tBoc]
